The values below come from the METLIN SMRT retention time set (Domingo-Almenara et al. 2019).

This data set in a line: gradient 5% acetonitrile 3 min, to 50% in 2 min, to 85% in 15 min, held 3 min, 100 µL/min. To be noted: column: Zorbax Extend-C18 2.1 x 50 mm; eluents: water / acetonitrile, 0.1% formic acid. The gist of the method:
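A Zorbax Extend-C18 column (2.1 × 50 mm, 1.8 μm) run at 100 μL/min with water and acetonitrile, both containing 0.1% formic acid, separated mixtures of ~100 pure standards. The HPLC was coupled to a quadrupole time-of-flight mass spectrometer operated in positive and negative ionization mode, with dead and dwell volumes of 40 μL and 900 μL. Each retention time was taken from a computationally picked adduct peak that was then manually inspected.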
As to `CCCn1ccc2sc(C)c(C(=O)NCc3ccc(F)cc3Cl)c2c1=O`, the RP-LC retention time came out at 1000 s.

As for `CN(C)C(=O)c1cc2c(s1)CCC(C(=O)N1CCN(C3CCCC3)CC1)C2` (centres undefined), the RP-LC retention time amounted to 573 s.

`Cc1[nH]c(C)c(S(=O)(=O)N2CCC(C(=O)N3CCc4ccccc43)CC2)c1C(=O)N1CCCCC1` returned an RP-LC retention time of 778 s.

Compound `Cc1ccc(Nc2cc(C)n3c(=O)n(Cc4cc(=O)n5ccccc5n4)nc3n2)cc1F` came in with an RP-LC retention time of 942 s.

In the case of `Cc1nn(-c2ccc(C(=O)N3CCN(C(=O)c4ccco4)CC3)cc2)c2c1C(=O)CC(C)(C)C2`, the RP-LC retention time was 712 s.

In turn, `COc1cc2c(cc1C(=O)NCCc1c[nH]c3ccccc13)OCCCO2` yielded an RP-LC retention time of 859 s.

Take `CC(C)NC(=O)c1cc2c(=O)oc3ccccc3c2n1C`: the RP-LC retention time was determined as 760 s.

The compound `CCN(CC)CCn1c(NCc2ccccc2OC)nc2ccccc21` yielded an RP-LC retention time of 1130 s.

`CC(C)(C)c1ccc(C(=O)Nc2nc(-c3ccc(F)cc3)cs2)cc1` yielded an RP-LC retention time of 1310 s.

For `COc1ccc2[nH]cc(CCNC(=O)CCCn3c4ccccc4c4cnn(C)c(=O)c43)c2c1`, the RP-LC retention time came to 795 s.

Compound `COc1ccc(NC2CS(=O)(=O)CC2O)cc1` (centres undefined) showed an RP-LC retention time of 592 s.

Turning to `CCCCN(CC)C(=O)C1CCN(S(=O)(=O)c2ccc3c(c2)NC(=O)CO3)CC1`, the RP-LC retention time amounted to 784 s.

As for `CCOc1ccccc1NC(=O)Cc1csc2nc(-c3ccccc3)cn12`, the RP-LC retention time turned out to be 894 s.

`CCS(=O)(=O)N1CC(=O)N(c2ccc(Cl)cc2C)C(C)(C(=O)NC2CCCCC2)C1` (centres undefined): the RP-LC retention time came to 946 s.

`COc1ccccc1N1CCN(Cc2nc3nc(C)cc(N4CCCC4)n3n2)CC1` showed an RP-LC retention time of 606 s.

`Cn1nc(CN2CCCC2)c2c1CCN(S(=O)(=O)c1ccc(C(F)(F)F)cc1)C2` had an RP-LC retention time of 679 s.

On to `Cc1cccc(C)c1NC(=O)CN1CCCC1=O`, for which the RP-LC retention time turned out to be 697 s.

The compound `Cc1ccc(S(=O)(=O)NCCc2cn(CC(C)C)c3ncccc23)cc1` showed an RP-LC retention time of 921 s.

Compound `COC(=O)C1=C(CN2CCOCC2)NC(=O)NC1c1ccc(Cl)cc1` (centres undefined) registered an RP-LC retention time of 566 s.

Compound `CCOc1nc2ccccc2nc1N1CCCC(C(=O)Nc2ccc(OC)cc2OC)C1` (centres undefined) had an RP-LC retention time of 1180 s.

The compound `Cc1ccc(Cl)cc1NS(=O)(=O)c1cc(-c2nc(C(C)C)cs2)cs1` had an RP-LC retention time of 1230 s.

`Ic1cccc(/C=N/Nc2nc(N3CCOCC3)nc(N(c3ccccc3)c3ccccc3)n2)c1`: the RP-LC retention time was 1140 s.

For the compound `CCCNC(=O)C1CCN(c2nc3ccsc3c(=O)n2Cc2ccccc2)CC1`, the RP-LC retention time was 756 s.

The compound `CCCN1C(=O)c2cc(S(=O)(=O)NC(C)c3ccccc3)ccc2Oc2cccnc21` (centres undefined) returned an RP-LC retention time of 1070 s.

Take `CCOc1ccc(CNC(=O)Cc2cn(C)c3ncccc23)cc1`: the RP-LC retention time is 698 s.

Compound `CCc1nc(-c2ccc(-c3noc(COc4ccc(OC)cc4)n3)cc2)cs1` showed an RP-LC retention time of 1270 s.

`c1ccc(CCCN2CCN(CCOC(c3ccccc3)c3ccccc3)CC2)cc1`: the RP-LC retention time was 874 s.

`CS(=O)(=O)c1ccc2nc(Nc3nc4cc5c(cc4s3)OCO5)sc2c1`: the RP-LC retention time worked out at 786 s.

Compound `Cc1nn(CC(=O)NCCN2CCOCC2)c(=O)c2nc(-c3ccccc3)sc12` showed an RP-LC retention time of 610 s.

`CCn1ccc2c(cc(C(=O)Nc3ccc(Br)c(C)c3)n2C)c1=O` had an RP-LC retention time of 895 s.

Regarding `COC(=O)c1c(-c2ccc(Cl)cc2)noc1NCCN1CCOCC1`, the RP-LC retention time was determined as 660 s.

In turn, `COC(=O)c1c(C)[nH]c(C(=O)N2CCC(CC(=O)NCc3ccc(OC(C)C)cc3)CC2)c1C` displayed an RP-LC retention time of 812 s.

For `CCCn1cnc2ccc(-c3noc(-c4ccccc4F)n3)cc21`, the RP-LC retention time came to 812 s.

For `COc1cccc(C(=O)N2C[C@@H]3C[C@H](NC(=O)c4ccccc4)[C@H]2C3)c1OC`, the RP-LC retention time is 682 s.

With `Cc1cc(-c2nnc(-c3ccc(F)cc3)o2)c(C)n1CC(=O)NCc1ccccc1F`, the RP-LC retention time amounted to 950 s.

Regarding `CN(C)c1ccc(CNC(=O)CN2C(=O)CCc3cc(Br)ccc32)cc1`, the RP-LC retention time stood at 651 s.

In turn, `O=C(/C=C/c1cccc(S(=O)(=O)Nc2ccccc2)c1)NO` displayed an RP-LC retention time of 679 s.

Compound `O=C(Cn1cc(Cl)cn1)N1CCCC1c1cccc(F)c1` (centres undefined) registered an RP-LC retention time of 836 s.

For the compound `COc1ccc(-c2ccc(=O)n(Cc3nc(-c4ccc(Cl)c(F)c4)no3)n2)cc1`, the RP-LC retention time turned out to be 1080 s.

Compound `CCOc1ccc(-c2ccc(=O)n(CCNC(=O)c3ccc(N(C)C)cc3)n2)cc1` showed an RP-LC retention time of 732 s.

As for `O=c1ccc(-c2ccccc2F)nn1Cc1nc(-c2ccccc2Cl)no1`, the RP-LC retention time worked out at 1020 s.

In the case of `O=C(Cc1c(Sc2ccc(F)cc2)[nH]c2ccccc12)N1CCN(c2ccccn2)CC1`, the RP-LC retention time worked out at 714 s.

As for `COc1nn(C)cc1C(=O)Nc1nc(-c2ccc3c(c2)CCCC3)cs1`, the RP-LC retention time is 1090 s.

The compound `CCN1C(=O)c2cc(S(=O)(=O)Nc3cccc(C)c3)ccc2Oc2cccnc21` registered an RP-LC retention time of 1010 s.

Compound `COCCN(CCNC(=O)C1Cn2cccc2C(=O)N1C)Cc1ccco1` (centres undefined) showed an RP-LC retention time of 569 s.

`COc1ccc(-c2noc(CN3C(=O)COc4cc(C)ccc43)n2)cc1` returned an RP-LC retention time of 1030 s.

For `CC(C)NC(=O)c1ccc(OCC2CCCN2C(=O)C(C)C)cc1` (centres undefined), the RP-LC retention time stood at 757 s.

`COCCOC1CCOC2(CCN(C(=O)c3cccs3)CC2)C1` (centres undefined) gave an RP-LC retention time of 691 s.

Compound `O=C(Nc1nccs1)C1CCN(C(=O)C2COc3ccccc3O2)CC1` (centres undefined) showed an RP-LC retention time of 716 s.

`O=c1ccc(-c2ccccc2)nn1Cc1nc(-c2cccc(Cl)c2)no1` came in with an RP-LC retention time of 1100 s.

On to `COc1ccc(NC(=O)N2CCCC(CN3CCc4ccccc4C3)C2)cc1OC` (centres undefined), for which the RP-LC retention time was determined as 628 s.

For `Fc1ccc(-c2noc(Cc3nnc(-c4cc(F)cc(F)c4)o3)n2)cc1`, the RP-LC retention time was determined as 1030 s.

For `O=C(NCc1cccs1)c1cccn1Cc1noc(-c2ccc(Cl)cc2)n1`, the RP-LC retention time was found to be 1080 s.

The compound `CC1CCC(NC(=O)C2CCN(c3nc4ccccc4[nH]3)CC2)CC1` (centres undefined) yielded an RP-LC retention time of 649 s.

Regarding `CCN(CC)c1nc(C(=O)N2CCC(N3CCCCC3)CC2)nc2nc(C)cc(C)c12`, the RP-LC retention time came out at 568 s.

Turning to `Cc1c(C(=O)N2CCOCC2)sc2nc(-c3ccccc3)c(NC(C)(C)C)n12`, the RP-LC retention time amounted to 778 s.

`CCc1ccc(NC(=O)Cn2nc3cc(C)nc(N4CCCC4)n3c2=O)cc1` registered an RP-LC retention time of 968 s.

In turn, `Cc1ccc(Cl)cc1N1CCN(C(=O)C2CCN(S(=O)(=O)c3cn(C)cn3)CC2)CC1` registered an RP-LC retention time of 859 s.

Compound `C=CCn1c(=O)c2ccccc2n(Cc2nc(-c3cccc(C(F)(F)F)c3)no2)c1=O` came in with an RP-LC retention time of 1110 s.
